Measured values: patent US11542304B2, “Multimeric bicyclic peptide ligands” (BicycleTx Limited, priority 2018, dated 2023)

Biological target: CD137 (Homo sapiens, UniProt Q07011)
Assay: CD137 Promega reporter cell activity assay (NF-κB luciferase in Jurkat cells)
Conditions: for Average Fold EC50 Improvement relative to CD137L: Average EC50 for CD137L = 14.2 nM; for Average Relative Fold Induction relative to CD137L: Average fold induction for CD137L = 4.0
Experimental: CD137 binding multimers were evaluated for CD137 using a Reporter cell activity assay that uses NF-κB luciferase luminescence as a read-out of CD137 activation in Jurkat cells. […] Samples were diluted at concentration expected to give the maximum fold induction and then titrated down in 1/3 dilution series or 1/10 dilution series in a sterile 96 well-plate. […] 50 μl cells were added per well to white cell culture plates.
Cells were co-incubated together with agonists for 6 h at 37° C., 5% CO2. After 6 h Bio-Glo™ was thawed and the assay developed at room-temperature. 75 ul Bio-Glo™ was added per well and incubated for 5-10 min. Luciferase signal was read on a Pherastar plate-reader using MARS program. Data was analysed by transforming the data to x=log (X), then plotting log (agonist) vs. response variable slope (4 parameters) to calculate EC50 values.

Sequence of CD137 (Q07011 24-255): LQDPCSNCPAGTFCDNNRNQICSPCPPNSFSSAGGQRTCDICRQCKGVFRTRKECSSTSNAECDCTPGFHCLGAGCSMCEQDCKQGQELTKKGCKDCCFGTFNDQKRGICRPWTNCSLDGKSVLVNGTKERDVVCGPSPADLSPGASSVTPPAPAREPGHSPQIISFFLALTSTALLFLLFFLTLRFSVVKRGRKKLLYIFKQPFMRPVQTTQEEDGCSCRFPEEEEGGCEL

SMILES	Average Fold EC50 Improvement relative to CD137L	Average Relative Fold Induction relative to CD137L
CC[C@H](C)[C@@H]1NC(=O)[C@@H](NC(=O)[C@H](C)NC(C)=O)CSCCC(=O)N2CN3CN(C2)C(=O)CCSC[C@H](NC(=O)[C@H](Cc2ccc(O)cc2)NC(=O)[C@H](CCC(N)=O)NC(=O)CNC(=O)[C@H](CCC(=O)O)NC(=O)[C@H](CCC(=O)O)NC1=O)C(=O)N[C@@H](Cc1ccccc1)C(=O)N[C@@H](C)C(=O)N[C@@H](CC(=O)O)C(=O)N1CCC[C@H]1C(=O)N[C@@H](Cc1ccc(O)cc1)C(=O)N[C@@H](CCCCNC(=O)OCC1C2CCc4nnn(CCOCCOCCOCCOCCOCCOCCOCCOCCOCCOCCNC(=O)CCOCC(COCCC(=O)NCCOCCOCCOCCOCCOCCOCCOCCOCCOCCOCCn5nnc6c5CCC5C(CC6)C5COC(=O)NCCCC[C@@H]5NC(=O)[C@H](Cc6ccc(O)cc6)NC(=O)[C@@H]6CCCN6C(=O)[C@H](CC(=O)O)NC(=O)[C@H](C)NC(=O)[C@H](Cc6ccccc6)NC(=O)[C@@H]6CSCCC(=O)N7CN(CN(C7)C(=O)CCSC[C@@H](C(=O)N[C@@H](C)C(N)=O)NC5=O)C(=O)CCSC[C@H](NC(=O)[C@H](C)NC(C)=O)C(=O)N[C@@H]([C@@H](C)CC)C(=O)N[C@@H](CCC(=O)O)C(=O)N[C@@H](CCC(=O)O)C(=O)NCC(=O)N[C@@H](CCC(N)=O)C(=O)N[C@@H](Cc5ccc(O)cc5)C(=O)N6)(COCCC(=O)NCCOCCOCCOCCOCCOCCOCCOCCOCCOCCOCCn5nnc6c5CCC5C(CC6)C5COC(=O)NCCCC[C@@H]5NC(=O)[C@H](Cc6ccc(O)cc6)NC(=O)[C@@H]6CCCN6C(=O)[C@H](CC(=O)O)NC(=O)[C@H](C)NC(=O)[C@H](Cc6ccccc6)NC(=O)[C@@H]6CSCCC(=O)N7CN(CN(C7)C(=O)CCSC[C@@H](C(=O)N[C@@H](C)C(N)=O)NC5=O)C(=O)CCSC[C@H](NC(=O)[C@H](C)NC(C)=O)C(=O)N[C@@H]([C@@H](C)CC)C(=O)N[C@@H](CCC(=O)O)C(=O)N[C@@H](CCC(=O)O)C(=O)NCC(=O)N[C@@H](CCC(N)=O)C(=O)N[C@@H](Cc5ccc(O)cc5)C(=O)N6)COCCC(=O)NCCOCCOCCOCCOCCOCCOCCOCCOCCOCCOCCn5nnc6c5CCC5C(CC6)C5COC(=O)NCCCC[C@@H]5NC(=O)[C@H](Cc6ccc(O)cc6)NC(=O)[C@@H]6CCCN6C(=O)[C@H](CC(=O)O)NC(=O)[C@H](C)NC(=O)[C@H](Cc6ccccc6)NC(=O)[C@@H]6CSCCC(=O)N7CN(CN(C7)C(=O)CCSC[C@@H](C(=O)N[C@@H](C)C(N)=O)NC5=O)C(=O)CCSC[C@H](NC(=O)[C@H](C)NC(C)=O)C(=O)N[C@@H]([C@@H](C)CC)C(=O)N[C@@H](CCC(=O)O)C(=O)N[C@@H](CCC(=O)O)C(=O)NCC(=O)N[C@@H](CCC(N)=O)C(=O)N[C@@H](Cc5ccc(O)cc5)C(=O)N6)c4CCC21)C(=O)N[C@H](C(=O)N[C@@H](C)C(N)=O)CSCCC3=O (stereo partly shown) [BCY8108]	34.03	0.79
CCCC[C@@H]1NC(=O)[C@H](Cc2ccc(O)cc2)NC(=O)[C@@H]2CCCN2C(=O)[C@H](CC(=O)O)NC(=O)[C@H](C)NC(=O)[C@H](CCCCNC(=O)OCC2C3CCc4nnn(CCOCCOCCOCCOCCOCCOCCOCCOCCOCCOCCOCCOCCOCCOCCOCCOCCOCCOCCOCCOCCOCCOCCOCCNC(=O)CCOCC(COCCC(=O)NCCOCCOCCOCCOCCOCCOCCOCCOCCOCCOCCOCCOCCOCCOCCOCCOCCOCCOCCOCCOCCOCCOCCOCCn5nnc6c5CCC5C(CC6)C5COC(=O)NCCCC[C@@H]5NC(=O)[C@@H]6CSCCC(=O)N7CN(CN(C7)C(=O)CCSC[C@@H](C(=O)N[C@@H](C)C(N)=O)NC(=O)[C@H](CCCC)NC(=O)[C@H](Cc7ccc(O)cc7)NC(=O)[C@@H]7CCCN7C(=O)[C@H](CC(=O)O)NC(=O)[C@H](C)NC5=O)C(=O)CCSC[C@H](NC(=O)[C@H](C)NC(C)=O)C(=O)N[C@@H]([C@@H](C)CC)C(=O)N[C@@H](CCC(=O)O)C(=O)N[C@@H](CCC(=O)O)C(=O)NCC(=O)N[C@@H](CCC(N)=O)C(=O)N[C@@H](Cc5ccc(O)cc5)C(=O)N6)(COCCC(=O)NCCOCCOCCOCCOCCOCCOCCOCCOCCOCCOCCOCCOCCOCCOCCOCCOCCOCCOCCOCCOCCOCCOCCOCCn5nnc6c5CCC5C(CC6)C5COC(=O)NCCCC[C@@H]5NC(=O)[C@@H]6CSCCC(=O)N7CN(CN(C7)C(=O)CCSC[C@@H](C(=O)N[C@@H](C)C(N)=O)NC(=O)[C@H](CCCC)NC(=O)[C@H](Cc7ccc(O)cc7)NC(=O)[C@@H]7CCCN7C(=O)[C@H](CC(=O)O)NC(=O)[C@H](C)NC5=O)C(=O)CCSC[C@H](NC(=O)[C@H](C)NC(C)=O)C(=O)N[C@@H]([C@@H](C)CC)C(=O)N[C@@H](CCC(=O)O)C(=O)N[C@@H](CCC(=O)O)C(=O)NCC(=O)N[C@@H](CCC(N)=O)C(=O)N[C@@H](Cc5ccc(O)cc5)C(=O)N6)COCCC(=O)NCCOCCOCCOCCOCCOCCOCCOCCOCCOCCOCCOCCOCCOCCOCCOCCOCCOCCOCCOCCOCCOCCOCCOCCn5nnc6c5CCC5C(CC6)C5COC(=O)NCCCC[C@@H]5NC(=O)[C@@H]6CSCCC(=O)N7CN(CN(C7)C(=O)CCSC[C@@H](C(=O)N[C@@H](C)C(N)=O)NC(=O)[C@H](CCCC)NC(=O)[C@H](Cc7ccc(O)cc7)NC(=O)[C@@H]7CCCN7C(=O)[C@H](CC(=O)O)NC(=O)[C@H](C)NC5=O)C(=O)CCSC[C@H](NC(=O)[C@H](C)NC(C)=O)C(=O)N[C@@H]([C@@H](C)CC)C(=O)N[C@@H](CCC(=O)O)C(=O)N[C@@H](CCC(=O)O)C(=O)NCC(=O)N[C@@H](CCC(N)=O)C(=O)N[C@@H](Cc5ccc(O)cc5)C(=O)N6)c4CCC32)NC(=O)[C@@H]2CSCCC(=O)N3CN(CN(C3)C(=O)CCSC[C@@H](C(=O)N[C@@H](C)C(N)=O)NC1=O)C(=O)CCSC[C@H](NC(=O)[C@H](C)NC(C)=O)C(=O)N[C@@H]([C@@H](C)CC)C(=O)N[C@@H](CCC(=O)O)C(=O)N[C@@H](CCC(=O)O)C(=O)NCC(=O)N[C@@H](CCC(N)=O)C(=O)N[C@@H](Cc1ccc(O)cc1)C(=O)N2 (stereo partly shown) [BCY8148]	18.71	1.20
